23 compounds from US20260159527A1, “MACROCYCLIC BCL6 DEGRADERS” (DANA-FARBER CANCER INSTITUTE, INC., priority 2022, published 2026) can be followed below.

The target of the test is T1, BCL6 (Homo sapiens, UniProt P41182).
T1 construct: Endogenous BCL6 was tagged with the 11-amino acid SmBiT through CRISPR/Cas9 gene editing; endogenous in cells; host or cells: Su-DHL-4 cells, CRISPR/Cas9 knock-in single cell clone
Briefly: HiBiT cellular degradation assay (Promega) in Su-DHL-4 cells. The note with it: concentration to reach 50% degradation; endogenous BCL6 tagged with SmBiT in Su-DHL-4 cells; 24 hr of compound treatment; relative to DMSO control. In kind it is cell-based. The protocol: DC50 (concentration to reach 50% degradation) values were determined from a cellular degradation assay (HiBiT, Promega™) in Su-DHL-4 cells (Table 1). Endogenous BCL6 was tagged with the 11-amino acid SmBiT through CRISPR/Cas9 gene editing and single cell clone selection. After 24 hr of compound treatment, cells were lysed and incubated with LgBiT protein to reconstitute intact nanoluciferase. Substrate was then added and relative luciferase units were measured. Degradation levels for each treatment were taken as a percentage compared to the control, 100% DMSO (Prism).
For orientation: The HiBiT peptide binds its large partner to form an active luciferase.

One may read the DC50 as the concentration at which degradation of the target reaches its halfway point. Turning to `CNC(=O)COc1cc2cc3cc(c2n(C)c1=O)OCCCC1CN(CC(C)C1(F)F)c1ncc(Cl)c(n1)N3` (centres unmarked) [Compound 1], the DC50 turned out to be 0.0019 µM.

On to `CNC(=O)COc1cc2cc3cc(c2n(C)c1=O)OCCOC1CC(C)CN(C1)c1ncc(Cl)c(n1)N3` (centres unmarked) [Compound 2], for which half-maximal degradation (DC50) was put at 0.00034 µM.

`CNC(=O)COc1cc2cc3cc(c2n(C)c1=O)OCCNC1CN(CC(C)C1(F)F)c1ncc(Cl)c(n1)N3` (centres unmarked) [Compound 3] yielded a DC50 of 0.00036 µM.

The compound `CNC(=O)COc1cc2cc3cc(c2n(C)c1=O)OCCC[C@@H]1CN(C[C@H](C)C1(F)F)c1ncc(Cl)c(n1)N3` [Compound 5, 2-(((1^3R, 1^5S)-2^5-Chloro-1^4, 1^4-difluoro-1^5,4^1-dimethyl-4^2-oxo-4^1,4^2-dihydro-5-oxa-3-aza-4(6,8)-quinolina-2(2,4)-pyrimidina-1 (1,3)-piperidinacyclooctaphane-4^3-yl)oxy)-N-methylacetamide] registered a DC50 of 0.15 µM.

Compound `CNC(=O)COc1cc2cc3cc(c2n(C)c1=O)OCCO[C@H]1C[C@@H](C)CN(C1)c1ncc(Cl)c(n1)N3` [Compound 7, 2-(((1^3S, 1^5R)-2^5-chloro-1^5,4^1-dimethyl-4^2-oxo-4^1,4^2-dihydro-5,8-dioxa-3-aza-4(6,8)-quinolina-2(2,4)-pyrimidina-1 (1,3)-piperidinacyclooctaphane-4^3-yl)oxy)-N-methylacetamide] registered a DC50 of 0.121 µM.

Regarding `C[C@@H]1CN2C[C@H](CCCOc3cc(cc4c3n(C)c(=O)n4CCC(C)(C)O)Nc3nc2ncc3Cl)C1(F)F` [Compound 10, (1^3S,1^5R)-2^5-chloro-1^4,1^4-difluoro-4^1-(3-hydroxy-3-methylbutyl)-1^5,4^3-dimethyl-4^2, 4^3-dihydro-4^1H-5-oxa-3-aza-4(6,4)-benzo[d]imidazola-2(2,4)-pyrimidina-1 (1,3)-piperidinacyclooctaphan-4^2-one], the DC50 is 0.011 µM.

In the case of `C[C@H]1CN2C[C@@H](CCCOc3cc(cc4c3n(C)c(=O)n4CCC(C)(C)O)Nc3nc2ncc3Cl)C1(F)F` [Compound 11, (1^3R, 1^5S)-2^5-Chloro-1^4, 1^4-difluoro-4^1-(3-hydroxy-3-methylbutyl)-1^5,4^3-dimethyl-4^2,4^3-dihydro-4^1H-5-oxa-3-aza-4(6,4)-benzo[d]imidazola-2(2,4)-pyrimidina-1 (1,3)-piperidinacyclooctaphan-4^2-one], the DC50 is more than 0.4 µM.

In turn, `C[C@H]1C[C@@H]2CN(C1)c1ncc(Cl)c(n1)Nc1cc(c3c(c1)n(CCC(C)(C)O)c(=O)n3C)OCCO2` [Compound 12, (1^3R, 1^5S)-2^5-chloro-4^1-(3-hydroxy-3-methylbutyl)-1^5,4^3-dimethyl-4^2,4^3-dihydro-4^1H-5,8-dioxa-3-aza-4(6,4)-benzo[d]imidazola-2(2,4)-pyrimidina-1 (1,3)-piperidinacyclooctaphan-4^2-one] displayed a DC50 of 0.002 µM.

On to `C[C@@H]1C[C@H]2CN(C1)c1ncc(Cl)c(n1)Nc1cc(c3c(c1)n(CCC(C)(C)O)c(=O)n3C)OCCO2` [Compound 13, (1^3S,1^5R)-2^5-chloro-4^1-(3-hydroxy-3-methylbutyl)-1^5,4^3-dimethyl-4^2,4^3-dihydro-4^1H-5,8-dioxa-3-aza-4(6,4)-benzo[d]imidazola-2(2,4)-pyrimidina-1 (1,3)-piperidinacyclooctaphan-4^2-one], for which the DC50 was more than 0.4 µM.

The compound `C[C@@H]1CN2C[C@H](NCCOc3cc(cc4c3n(C)c(=O)n4CCC(C)(C)O)Nc3nc2ncc3Cl)C1(F)F` [Compound 14, (1^3S,1^5R)-2^5-chloro-1^4,1^4-difluoro-4^1-(3-hydroxy-3-methylbutyl)-1^5,4^3-dimethyl-4^2,4^3-dihydro-41 H-5-oxa-3,8-diaza-4(6,4)-benzo[d]imidazola-2(2,4)-pyrimidina-1 (1,3)-piperidinacyclooctaphan-4^2-one] returned a half-maximal degradation concentration (DC50) of 0.0029 µM.

In the case of `C[C@H]1CN2C[C@@H](NCCOc3cc(cc4c3n(C)c(=O)n4CCC(C)(C)O)Nc3nc2ncc3Cl)C1(F)F` [Compound 15, (1^3R, 1^5S)-2^5-chloro-1^4,1^4-difluoro-4^1-(3-hydroxy-3-methylbutyl)-1^5,4^3-dimethyl-4^2,4^3-dihydro-41 H-5-oxa-3,8-diaza-4(6,4)-benzo[d]imidazola-2(2,4)-pyrimidina-1 (1,3)-piperidinacyclooctaphan-4^2-one], the DC50 turned out to be 0.082 µM.

Take `C[C@H]1C[C@@H]2CN(C1)c1ncc(Cl)c(n1)Nc1cc(c3c(c1)n(CCC(C)(C)O)c(=O)n3C)OCCN2` [Compound 16, (1^3R, 1^5S)-2^5-Chloro-4^1-(3-hydroxy-3-methylbutyl)-1^5,4^3-dimethyl-4^2,4^3-dihydro-41 H-5-oxa-3,8-diaza-4(6,4)-benzo[d]imidazola-2(2,4)-pyrimidina-1 (1,3)-piperidinacyclooctaphan-4^2-one]: the DC50 worked out at 0.0024 µM.

`C[C@@H]1C[C@H]2CN(C1)c1ncc(Cl)c(n1)Nc1cc(c3c(c1)n(CCC(C)(C)O)c(=O)n3C)OCCN2` [Compound 17, (1^3S,1^5R)-2^5-Chloro-4^1-(3-hydroxy-3-methylbutyl)-1^5,4^3-dimethyl-4^2,4^3-dihydro-41 H-5-oxa-3,8-diaza-4(6,4)-benzo[d]imidazola-2(2,4)-pyrimidina-1 (1,3)-piperidinacyclooctaphan-4^2-one] returned a DC50 of 0.033 µM.

`C[C@@H]1CN2C[C@H](CCCOc3cc(cc4c3n(C)c(=O)c(=O)n4C[C@H]3C[C@H](O)C3)Nc3nc2ncc3Cl)C1(F)F` [Compound 18-1, (1^3S,1^5R)-2^5-Chloro-1^4,1^4-difluoro-4^1-(((1r,3S)-3-hydroxycyclobutyl)methyl)-1^5,4^4-dimethyl-4^1,4^2,4^3,4^4-tetrahydro-5-oxa-3-aza-4(7,5)-quinoxalina-2(2,4)-pyrimidina-1 (1,3)-piperidinacyclooctaphane-4^2,4^3-dione] showed a DC50 of 0.031 µM. This DC50 and that of the compound before are within 1.5-fold of each other.

On to `C[C@@H]1CN2C[C@H](CCCOc3cc(cc4c3n(C)c(=O)c(=O)n4C[C@H]3C[C@@H](O)C3)Nc3nc2ncc3Cl)C1(F)F` [Compound 18-2], for which the DC50 stood at 0.0044 µM.

For the compound `C[C@H]1CN2C[C@@H](CCCOc3cc(cc4c3n(C)c(=O)c(=O)n4C[C@H]3C[C@H](O)C3)Nc3nc2ncc3Cl)C1(F)F` [Compound 19-1, (1^3R, 1^5S)-2^5-Chloro-1^4, 1^4-difluoro-4^1-(((1r, 3R)-3-hydroxycyclobutyl)methyl)-1^5, 4^4-dimethyl-4^1,4^2,4^3,4^4-tetrahydro-5-oxa-3-aza-4(7,5)-quinoxalina-2(2,4)-pyrimidina-1 (1,3)-piperidinacyclooctaphane-4^2,4^3-dione], the half-maximal degradation concentration (DC50) is more than 0.4 µM.

For the compound `C[C@H]1CN2C[C@@H](CCCOc3cc(cc4c3n(C)c(=O)c(=O)n4C[C@H]3C[C@@H](O)C3)Nc3nc2ncc3Cl)C1(F)F` [Compound 19-2, (1^3R, 1^5S)-2^5-chloro-1^4,1^4-difluoro-4^1-(((1s,3S)-3-hydroxycyclobutyl)methyl)-1^2,4^4-dimethyl-4^2,4^2,4^3,4^4-tetrahydro-5-oxa-3-aza-4(7,5)-quinoxalina-2(2,4)-pyrimidina-1 (1,3)-piperidinacyclooctaphane-4^2,4^3-dione], the DC50 was more than 0.4 µM.

`C[C@@H]1CN2C[C@H](CCCOc3cc(cc4[nH]c(=O)c(=O)n(C)c34)Nc3nc2ncc3Cl)C1(F)F` [Compound 28, (1^3S,1^3R)-2^5-Chloro-1^4,1^4-difluoro-1^5,4^4-dimethyl-41, 42, 43,44-tetrahydro-5-oxa-3-aza-4(7,5)-quinoxalina-2(2,4)-pyrimidina-1 (1,3)-piperidinacyclooctaphane-4^2,4^3-dione]: the DC50 stood at 0.022 µM.

Compound `C[C@@H]1CN2C[C@H](CCCOc3cc(cc4c3n(C)c(=O)n4C)Nc3nc2ncc3Cl)C1(F)F` [Compound 29, (1^3S,1^5R)-2^5-chloro-1^4,1^4-difluoro-1^5,4^14^3-trimethyl-4^2,4^3-dihydro-4^1H-5-oxa-3-aza-4(6,4)-benzo[d]imidazola-2(2,4)-pyrimidina-1 (1,3)-piperidinacyclooctaphan-4^2-one] showed a DC50 of 0.076 µM.

The compound `C[C@H]1CN2C[C@@H](CCCOc3cc(cc4c3n(C)c(=O)n4C)Nc3nc2ncc3Cl)C1(F)F` [Compound 30, (1^3R155)-2^5-chloro-1^4,1^4-difluoro-1^5,4^14^3-trimethyl-4^2,4^3-dihydro-4^1H-5-oxa-3-aza-4(6,4)-benzo[d]imidazola-2(2,4)-pyrimidina-1 (1,3)-piperidinacyclooctaphan-4^2-one] showed a DC50 of more than 0.4 µM.

`C[C@@H]1CN2C[C@H](NCCOc3cc(cc4[nH]c(=O)n(C)c34)Nc3nc2ncc3Cl)C1(F)F` [Compound 31, (1^3S,1^5R)-2^5-chloro-1^4,1^4-difluoro-1^5,4^3-dimethyl-4^2,4^3-dihydro-4^1H-5-oxa-3,8-diaza-4(6,4)-benzo[d]imidazola-2(2,4)-pyrimidina-1 (1,3)-piperidinacyclooctaphan-4^2-one] came in with a DC50 of 0.0075 µM.

`C[C@H]1CN2C[C@@H](NCCOc3cc(cc4[nH]c(=O)n(C)c34)Nc3nc2ncc3Cl)C1(F)F` [Compound 32, (1^3R, 1^5S)-2^5-chloro-1^4,1^4-difluoro-1^5,4^3-dimethyl-4^2,4^3-dihydro-4^1H-5-oxa-3,8-diaza-4(6,4)-benzo[d]imidazola-2(2,4)-pyrimidina-1 (1,3)-piperidinacyclooctaphan-4^2-one] displayed a DC50 of more than 0.4 µM.

With `C[C@@H]1CN2C[C@H](OCCOc3cc(cc4c3n(C)c(=O)n4CCC(C)(C)O)Nc3nc2ncc3Cl)C1(F)F` [Compound 33, (1^3S,1^5R)-2^5-Chloro-1^4, 1^4-difluoro-4^1-(3-hydroxy-3-methylbutyl)-1^5,4^3-dimethyl-4^2,4^3-dihydro-4^1H-5,8-dioxa-3-aza-4(6,4)-benzo[d]imidazola-2(2,4)-pyrimidina-1 (1,3)-piperidinacyclooctaphan-4^2-one], half-maximal degradation (DC50) was put at 0.0019 µM.
